The record followed here is patent publication US20230279001A1, “IMIDAZO[1,2-A]PYRIDINE COMPOUNDS FOR THE TREATMENT OF AUTOIMMUNE DISEASE” (Hoffmann-La Roche Inc., priority 2020, published 2023).

SMILES strings stand for the structures.

In one data set the target is TLR9 (Homo sapiens (Human), UniProt Q9NR96). Nature of the data set: HEK293-Blue-hTLR-9 cells assay. It counts as cell-based. Conditions: HEK293-Blue-hTLR9 cells, ODN2006 stimulation, 20 hrs, SEAP reporter; read-out: HEK/hTLR9 IC50. The source says: A stable HEK293-Blue-hTLR-9 cell line was purchased from InvivoGen (Cat. #: hkb-htlr9, San Diego, Calif., USA). These cells were originally designed for studying the stimulation of human TLR9 by monitoring the activation of NF-κB. A SEAP (secreted embryonic alkaline phosphatase) reporter gene was placed under the control of the IFN-β minimal promoter fused to five NF-κB and AP-1-binding sites. The SEAP was induced by activating NF-κB and AP-1 via stimulating HEK-Blue hTLR9 cells with TLR9 ligands. Therefore the reporter expression was declined by TLR9 antagonist under the stimulation of a ligand, such as ODN2006 (Cat. #: tlr1-2006-1, Invivogen, San Diego, Calif., USA), for incubation of 20 hrs. The cell culture supernatant SEAP reporter activity was determined using QUANTI-Blue™ kit (Cat. #: rep-qb1, Invivogen, San Diego, Calif., USA) at a wavelength of 640 nm, a detection medium that turns purple or blue in the presence of alkaline phosphatase.
HEK293-Blue-hTLR9 cells were incubated at a density of 250,000˜450,000 cells/mL in a volume of 170 μL in a 96-well plate in Dulbecco's Modified Eagle's medium (DMEM) containing 4.5 g/L glucose, 50 U/mL penicillin, […], 2 mM L-glutamine, 10% (v/v) heat-inactivated fetal bovine serum with addition of 20 μL test compound in a serial dilution in the presence of final DMSO at 1% and 10 μL, of 20 uM ODN2006 in above DMEM, perform incubation under 37° C. in a CO2 incubator for 20 hrs. Then 20 μL of the supernatant from each well was incubated with 180 μL, Quanti-blue substrate solution at 37° C. for 2 h and the absorbance was read at 620655 nm using a spectrophotometer. The signaling pathway that TLR9 activation leads to downstream NF-κB activation has been widely accepted, and therefore similar reporter assay was modified for evaluating TLR9 antagonist.

Data set [1] can be described thus: Human microsome stability assay. To be noted: human liver microsomes, 1 μM test compound, 37° C., NADPH regenerating system. It counts as in vitro ADME. The method, then:
The human microsomal stability assay is used for early assessment of metabolic stability of a test compound in human liver microsomes.
Human liver microsomes (Cat. NO.: 452117, Corning, USA; Cat. NO.: H2610, Xenotech, USA) were preincubated with test compound for 10 minutes at 37° C. in 100 mM potassium phosphate buffer, pH 7.4. The reactions were initiated by adding NADPH regenerating system. The final incubation mixtures contained 1 μM test compound, 0.5 mg/mL liver microsomal protein, 1 mM MgCl2, 1 mM NADP, 1 unit/mL isocitric dehydrogenase and 6 mM isocitric acid in 100 mM potassium phosphate buffer, pH 7.4. After incubation times of 0, 3, 6, 9, 15 and 30 minutes at 37° C., 300 μL of cold acetonitrile (including internal standard) was added to 100 μL incubation mixture to terminate the reaction. Following precipitation and centrifugation, the amount of compound remaining in the samples were determined by LC-MS/MS. Controls of no NADPH regenerating system at zero and 30 minutes were also prepared and analyzed.
(In general: Liver microsomes are a subcellular fraction often used to study metabolism.)

A further data set concerns the target human TLR7 (Homo sapiens (Human), UniProt Q9NYK1). Nature of the data set: HEK293-Blue-hTLR-7 cells assay. It counts as cell-based. To be noted: HEK293-Blue-hTLR7 cells, R848 stimulation, 20 hrs, SEAP reporter; read-out: HEK/hTLR7 IC50. The source says:
A stable HEK293-Blue-hTLR-7 cell line was purchased from InvivoGen (Cat. #: hkb-htlr7, San Diego, Calif., USA). These cells were originally designed for studying the stimulation of human TLR7 by monitoring the activation of NF-κB. A SEAP (secreted embryonic alkaline phosphatase) reporter gene was placed under the control of the IFN-β minimal promoter fused to five NF-κB and AP-1-binding sites. The SEAP was induced by activating NF-κB and AP-1 via stimulating HEK-Blue hTLR7 cells with TLR7 ligands. Therefore the reporter expression was declined by TLR7 antagonist under the stimulation of a ligand, such as R848 (Resiquimod), for incubation of 20 hrs. The cell culture supernatant SEAP reporter activity was determined using QUANTI-Blue™ kit (Cat. #: rep-qb1, Invivogen, San Diego, Ca, USA) at a wavelength of 640 nm, a detection medium that turns purple or blue in the presence of alkaline phosphatase.
HEK293-Blue-hTLR7 cells were incubated at a density of 250,000˜450,000 cells/mL in a volume of 170 μL in a 96-well plate in Dulbecco's Modified Eagle's medium (DMEM) containing 4.5 g/L glucose, 50 U/mL penicillin, […], […], 2 mM L-glutamine, 10% (v/v) heat-inactivated fetal bovine serum with addition of 20 μL test compound in a serial dilution in the presence of final DMSO at 1% and 10 μL of 20 uM R848 in above DMEM, perform incubation under 37° C. in a CO2 incubator for 20 hrs. Then 20 μL of the supernatant from each well was incubated with 180 μL Quanti-blue substrate solution at 37° C. for 2 hrs and the absorbance was read at 620-655 nm using a spectrophotometer. The signaling pathway that TLR7 activation leads to downstream NF-κB activation has been widely accepted, and therefore similar reporter assay was modified for evaluating TLR7 antagonist.

Sequence of human TLR7 (Q9NYK1 27-1049): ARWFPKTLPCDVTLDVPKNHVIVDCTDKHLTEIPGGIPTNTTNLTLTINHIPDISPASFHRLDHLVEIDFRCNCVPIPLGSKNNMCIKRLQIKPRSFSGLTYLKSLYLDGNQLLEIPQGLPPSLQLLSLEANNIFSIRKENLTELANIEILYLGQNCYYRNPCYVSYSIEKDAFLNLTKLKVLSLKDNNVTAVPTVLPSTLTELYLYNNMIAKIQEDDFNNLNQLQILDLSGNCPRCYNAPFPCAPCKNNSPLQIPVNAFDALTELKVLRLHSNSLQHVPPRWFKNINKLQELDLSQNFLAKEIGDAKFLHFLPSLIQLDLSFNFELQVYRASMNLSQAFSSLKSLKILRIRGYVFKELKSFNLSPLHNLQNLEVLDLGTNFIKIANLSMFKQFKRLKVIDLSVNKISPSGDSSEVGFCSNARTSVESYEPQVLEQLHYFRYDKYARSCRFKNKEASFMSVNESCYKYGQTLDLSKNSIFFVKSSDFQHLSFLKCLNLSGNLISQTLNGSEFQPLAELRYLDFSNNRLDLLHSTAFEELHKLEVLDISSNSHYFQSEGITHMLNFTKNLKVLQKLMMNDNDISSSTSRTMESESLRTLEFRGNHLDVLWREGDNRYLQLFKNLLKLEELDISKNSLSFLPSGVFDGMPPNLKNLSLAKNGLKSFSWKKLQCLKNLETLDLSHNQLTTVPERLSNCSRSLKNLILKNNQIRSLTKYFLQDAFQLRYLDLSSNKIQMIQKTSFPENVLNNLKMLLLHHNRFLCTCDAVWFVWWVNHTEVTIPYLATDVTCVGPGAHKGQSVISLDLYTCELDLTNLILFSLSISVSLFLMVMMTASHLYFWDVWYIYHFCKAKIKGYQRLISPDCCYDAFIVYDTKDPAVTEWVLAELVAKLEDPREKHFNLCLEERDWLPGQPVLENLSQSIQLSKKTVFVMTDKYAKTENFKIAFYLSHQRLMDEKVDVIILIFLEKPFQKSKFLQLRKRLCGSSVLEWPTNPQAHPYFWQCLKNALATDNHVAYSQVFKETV
Sequence of TLR9 (Q9NR96 26-1032): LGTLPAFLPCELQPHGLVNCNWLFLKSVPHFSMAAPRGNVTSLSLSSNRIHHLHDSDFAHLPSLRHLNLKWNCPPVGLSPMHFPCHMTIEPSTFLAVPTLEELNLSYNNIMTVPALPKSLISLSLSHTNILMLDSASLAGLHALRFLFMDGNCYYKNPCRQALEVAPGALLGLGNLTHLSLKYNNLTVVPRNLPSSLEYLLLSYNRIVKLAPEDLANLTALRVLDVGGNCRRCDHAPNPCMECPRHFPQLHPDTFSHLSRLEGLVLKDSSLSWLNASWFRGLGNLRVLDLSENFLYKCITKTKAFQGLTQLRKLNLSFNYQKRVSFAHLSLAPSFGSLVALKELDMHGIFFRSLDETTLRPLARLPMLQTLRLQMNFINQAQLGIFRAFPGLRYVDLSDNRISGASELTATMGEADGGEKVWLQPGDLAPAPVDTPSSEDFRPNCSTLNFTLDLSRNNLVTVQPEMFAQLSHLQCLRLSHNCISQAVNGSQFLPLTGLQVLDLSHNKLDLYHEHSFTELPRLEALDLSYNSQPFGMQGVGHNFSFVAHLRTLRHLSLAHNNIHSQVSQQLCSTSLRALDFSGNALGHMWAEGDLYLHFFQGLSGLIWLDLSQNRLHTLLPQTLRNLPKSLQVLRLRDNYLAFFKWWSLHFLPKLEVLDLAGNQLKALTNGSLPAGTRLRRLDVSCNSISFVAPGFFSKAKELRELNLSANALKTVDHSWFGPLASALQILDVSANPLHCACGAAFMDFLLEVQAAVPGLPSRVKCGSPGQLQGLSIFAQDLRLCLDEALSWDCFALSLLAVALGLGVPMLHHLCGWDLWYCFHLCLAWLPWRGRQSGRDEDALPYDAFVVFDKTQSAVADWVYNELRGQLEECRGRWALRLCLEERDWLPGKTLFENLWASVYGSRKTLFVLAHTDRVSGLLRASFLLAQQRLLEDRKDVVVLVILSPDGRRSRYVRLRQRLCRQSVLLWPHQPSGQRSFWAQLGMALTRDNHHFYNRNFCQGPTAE

Take `Cc1cn2cc(-c3ccc(N4CCC(N5CC(C)(N)C5)CC4)nc3C(F)F)cc(C)c2n1` [Example 12, 1-[1-[6-(difluoromethyl)-5-(2,8-dimethylimidazo[1,2-a]pyridin-6-yl)-2-pyridyl]-4-piperidyl]-3-methyl-azetidin-3-amine]: the IC50 at TLR9 was found to be 145 nM; on human TLR7, 16.3 nM. In addition, in data set [1], the “Clearance of Human microsome” value was found to be 6.15 mL/min/kg.

For the molecule `CCc1nc(N2CCC(N3C[C@@H](N)[C@H](OC)C3)CC2)ccc1-c1cc(C)c2nccn2c1` [Example 15, (3R,4R)-1-[1-[6-ethyl-5-(8-methylimidazo[1,2-a]pyridin-6-yl)-2-pyridyl]-4-piperidyl]-4-methoxy-pyrrolidin-3-amine], the figures for the IC50 at TLR9 and at human TLR7 were 286 nM and 2.7 nM, respectively. Besides, the “Clearance of Human microsome” value in data set [1] is given as 6.15 mL/min/kg.

Turning to `Cc1cc(-c2ccc(N3CCC(N4CCNCC4)CC3)nc2C(F)F)cn2ccnc12` [Example 10, 6-[2-(difluoromethyl)-6-(4-piperazin-1-yl-1-piperidyl)-3-pyridyl]-8-methyl-imidazo[1,2-a]pyridine], the IC50 at TLR9 worked out at 217 nM; on human TLR7 it was 1.9 nM. In addition, the “Clearance of Human microsome” value in data set [1] is listed as 9.15 mL/min/kg.

In the case of `Cc1cn2cc(-c3ccc(N4CCC(N)CC4)nc3C(C)C)cc(C)c2n1` [Example 4, 1-[5-(2,8-dimethylimidazo[1,2-a]pyridin-6-yl)-6-isopropyl-2-pyridyl]piperidin-4-amine], the IC50 came out at 154 nM on TLR9 and 8.9 nM on human TLR7. Further, in data set [1], the “Clearance of Human microsome” value was 8.25 mL/min/kg.

With `CCc1nc(N2CCC(N3CC4(CNCCO4)C3)CC2)ccc1-c1cc(C)c2nccn2c1` [Example 14, 2-[1-[6-ethyl-5-(8-methylimidazo[1,2-a]pyridin-6-yl)-2-pyridyl]-4-piperidyl]-5-oxa-2,8-diazaspiro[3.5]nonane], the results for the IC50 on TLR9 and at human TLR7 were 216 nM and 3.9 nM, respectively. Further, the “Clearance of Human microsome” value in data set [1] is recorded as 9.45 mL/min/kg.

For `CCc1nc(N2CCC(N3C[C@@H](N)[C@H](OC)C3)CC2)ccc1-c1cc(C)c2nc(C)cn2c1` [Example 17, (3R,4R)-1-[1-[5-(2,8-dimethylimidazo[1,2-a]pyridin-6-yl)-6-ethyl-2-pyridyl]-4-piperidyl]-4-methoxy-pyrrolidin-3-amine], the IC50 at TLR9 came out at 224 nM; at human TLR7, 17.3 nM.

For the molecule `CCc1nc(N2CCC(N3CCNCC3)CC2)ccc1-c1cc(C)c2nc(C)cn2c1` [Example 21, 6-[2-ethyl-6-(4-piperazin-1-yl-1-piperidyl)-3-pyridyl]-2,8-dimethyl-imidazo[1,2-a]pyridine], the IC50 at TLR9 turned out to be 140 nM; at human TLR7, 5.9 nM.

For the molecule `Cc1cn2cc(-c3ccc(N4CCC(N5CCNCC5)CC4)nc3C(C)C)cc(C)c2n1` [Example 3, 6-[2-isopropyl-6-(4-piperazin-1-yl-1-piperidyl)-3-pyridyl]-2,8-dimethyl-imidazo[1,2-a]pyridine], the IC50 at TLR9 came to 198 nM; on human TLR7, 5.8 nM. In addition, the “Clearance of Human microsome” value in data set [1] stood at 6.15 mL/min/kg.

Regarding `CCc1nc(N2CCC(C)(N)CC2)ccc1-c1cc(C)c2nc(C)cn2c1` [Example 20, 1-[5-(2,8-dimethylimidazo[1,2-a]pyridin-6-yl)-6-ethyl-2-pyridyl]-4-methyl-piperidin-4-amine], the figures for the IC50 at TLR9 and at human TLR7 were 108 nM and 35.8 nM, respectively.

For the molecule `Cc1cn2cc(-c3ccc(N4CCN5CCNCC5C4)nc3C(C)C)cc(C)c2n1` (centres unmarked) [Example 8, 2-[5-(2,8-dimethylimidazo[1,2-a]pyridin-6-yl)-6-isopropyl-2-pyridyl]-1,3,4,6,7,8,9,9a-octahydropyrazino[1,2-a]pyrazine], the IC50 at TLR9 was found to be 294 nM; at human TLR7, 6.7 nM.

On to `Cc1c(-c2ccc(N3CCC(N4CCNCC4)CC3)nc2C(C)C)cn2ccnc2c1C` [Example 7, 6-[2-isopropyl-6-(4-piperazin-1-yl-1-piperidyl)-3-pyridyl]-7,8-dimethyl-imidazo[1,2-a]pyridine], for which the IC50 at TLR9 was 112 nM; on human TLR7, 22.7 nM.

For the molecule `Cc1cc(-c2ccc(N3CCC(N4CCNCC4)CC3)nc2C(C)C)cn2ccnc12` [Example 2, 6-[2-isopropyl-6-(4-piperazin-1-yl-1-piperidyl)-3-pyridyl]-8-methyl-imidazo[1,2-a]pyridine], the IC50 on TLR9 was determined as 151 nM; at human TLR7, 1.6 nM.

Consider `Cc1cn2cc(-c3ccc(N4CCC(N5CCNCC5)CC4)nc3C(F)F)cc(C)c2n1` [Example 11, 6-[2-(difluoromethyl)-6-(4-piperazin-1-yl-1-piperidyl)-3-pyridyl]-2,8-dimethyl-imidazo[1,2-a]pyridine], for which the results for the IC50 on TLR9 and at human TLR7 were 111 nM and 16.3 nM, respectively. For the same molecule, in data set [1], the “Clearance of Human microsome” value is given as 7.02 mL/min/kg.

In the case of `COc1nc(N2CCC(N3CCNCC3)CC2)ccc1-c1cc(C)c2nccn2c1` [Example 25, 6-[2-methoxy-6-(4-piperazin-1-yl-1-piperidyl)-3-pyridyl]-8-methyl-imidazo[1,2-a]pyridine], the IC50 on TLR9 is 92 nM; on human TLR7, 6.9 nM. In data set [1], the “Clearance of Human microsome” value worked out at 6.15 mL/min/kg.

Regarding `Cc1cc(-c2cc(C)c3nccn3c2)cnc1N1CCC(N2CCN(C)CC2)CC1` [Example 9, 8-methyl-6-[5-methyl-6-[4-(4-methylpiperazin-1-yl)-1-piperidyl]-3-pyridyl]imidazo[1,2-a]pyridine], the IC50 on TLR9 came out at 169 nM; on human TLR7, 13.2 nM. Also, in data set [1], the “Clearance of Human microsome” value was determined as 7.20 mL/min/kg.

As to `Cc1cn2cc(-c3ccc(N4CCNC[C@H]4CO)nc3C(C)C)cc(C)c2n1` [Example 5, [(2S)-1-[5-(2,8-dimethylimidazo[1,2-a]pyridin-6-yl)-6-isopropyl-2-pyridyl]piperazin-2-yl]methanol], the results for the IC50 on TLR9 and on human TLR7 were 227 nM and 21.4 nM, respectively.

For `CCc1cc(-c2cc(C)c3nccn3c2)cnc1N1CCC2(CCNCC2)CC1` [Example 22, 3-[3-ethyl-5-(8-methylimidazo[1,2-a]pyridin-6-yl)-2-pyridyl]-3,9-diazaspiro[5.5]undecane], the values for the IC50 at TLR9 and on human TLR7 were 132 nM and 3.3 nM, respectively. Besides, the “Clearance of Human microsome” value in data set [1] worked out at 6.15 mL/min/kg.
